Assays:
[1] = Compound toxicity in the attachment assay, sister plate, XTT or MTS (Example 2); assay type: cell-based; details: human, HeLa CD4 LTR β-gal cells, read-out: Attachment Assay TC50
Method: (§1) This assay detects compounds that block virus attachment using HeLa CD4 LTR β-gal cells. HeLa CD4 LTR β-gal cells were cultured with selection antibiotics. Twenty-four h prior to initiation of the assay, the cells were trypsinized, counted and plated in a 0.2 cm well in media without selection antibiotics. At 24 h media is removed and compound in media placed on the cells and incubated for 15 min at 37° C. A known titer of the IIIB strain of HIV-1 was then added to the wells and the incubation continued for 1 to 2 h. At the end of the incubation the wells were washed 2 times with media and the culture continued for 40 to 48 h. At termination of the assay, media is removed and β-galactosidase enzyme expression determined by chemiluminescence per manufacturer's instructions (Tropix Gal-screen, Bedford Mass.). Compound toxicity is monitored on a sister plate by XTT or MTS dye reduction. All determinations are performed in triplicate with serial_Log10 dilution of the test materials. The virus adsorption interval of 1 to 2 h was sufficiently short that AZT, which requires phosphorylation to achieve its active tri-phosphate form (AZT-TTP), is not active in this assay.

HeLa CD4 LTR β-gal cells = assay: as above; assay type: cell-based
Method: as §1

Q: With `Cc1c(O)cc(C(C)(C)CCCC(C)C)cc1O` [IMG510, 2-Methyl-5-(1,1,5-trimethylhexyl)resorcinol] as the compound, how does the CC50 [1] read?
A: > 10 µM

Q: With `Cc1ccc2c(c1)-c1c(O)cc(C(C)(C)CCCC(C)C)cc1OC2(C)C` [IMG511, 3-Norpentyl-3-(1,1,5-trimethylhexyl)cannabinol] as the compound, how does the “Attachment Assay TC50” value (HeLa CD4 LTR β-gal cells) read?
A: >67 µM

Q: With `CC1=CCC2C(C1)c1c(O)cc(C(C)(C)CCCC(C)C)cc1OC2(C)C` (stereo not drawn) [IMG509, 3-Norpentyl-3-(1,1,5-trimethylhexyl)-Δ8-tetrahydrocannabinol] as the compound, how does the CC50 [1] read?
A: > 10 µM
